Laboratory results as given in patent publication US8188284B2, “2-aminoquinolines” (Hoffman-La Roche Inc., priority 2008, dated 2012).

What was measured:
[1] = target: T1, recombinant human 5-HT5A receptor (Homo sapiens, UniProt P47898); assay: [3H]LSD radioligand binding assay; settings: [3H]LSD (approximately 1 nM), membranes from HEK-EBNA cells transiently expressing 5-HT5A receptors; Ki calculated from IC50 using the Cheng-Prussoff equation; read-out: Ki/nM 5-HT5A
T1 construct: expressed in transfected cells; host or cells: HEK-EBNA (Human Embryonic Kidney-EBNA) cells, transient cDNA expression, membranes
Procedure: A [^3H]LSD radioligand binding assay was used to determine the affinity of the compounds for the recombinant human 5-HT5A receptor, in membranes from transiently (cDNA) expressed 5-HT5A receptors in Human Embryonic Kidney-EBNA (HEK-EBNA) cells. Assay buffer consisted of Tris (50 mM) buffer containing 1 mM EGTA, 10 mM MgCl2 (pH 7.4) and 10 μM pargyline. The binding assay was carried out in 96-well-plates in the presence of [^3H]LSD (approximately 1 nM), approximately 2 μg/well of membrane protein, and 0.5 mg of Ysi-poly-1-lysine SPA beads in a final volume of 200 μl of buffer. Non-specific binding was defined using methiothepin 2 μM. Compounds were tested at 10 concentrations. All assays were conducted in duplicate and repeated at least two times. Assay plates were incubated for 120 min at room temperature before centrifugation. Bound ligand was determined using a Packard Topcount scintillation counter. IC50 values were calculated using a non-linear curve fitting program and Ki values calculated using the Cheng-Prussoff equation.

T1 sequence (P47898 whole entry): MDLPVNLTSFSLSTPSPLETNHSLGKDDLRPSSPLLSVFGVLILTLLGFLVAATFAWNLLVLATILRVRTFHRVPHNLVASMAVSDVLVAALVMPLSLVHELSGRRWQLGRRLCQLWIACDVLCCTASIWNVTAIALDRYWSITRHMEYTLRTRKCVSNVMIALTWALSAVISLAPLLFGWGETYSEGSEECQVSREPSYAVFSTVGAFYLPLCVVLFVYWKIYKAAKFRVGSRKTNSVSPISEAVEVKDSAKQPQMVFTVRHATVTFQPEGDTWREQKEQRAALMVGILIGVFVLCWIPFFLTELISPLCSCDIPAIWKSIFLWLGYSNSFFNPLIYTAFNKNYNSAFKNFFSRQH

Ki [1] [nM]	melting point [°C]	SMILES
5.4	126	COc1cccc2c1C(Nc1ccc3cc(Nc4cccc(C(F)(F)F)n4)ccc3n1)CC2 (racemic) [Example 91, rac-N^2-(7-Methoxy-indan-1-yl)-N^6-(6-trifluoromethyl-pyridin-2-yl)-quinoline-2,6-diamine]
4.3	196	COc1cccc2c1C(Nc1ccc3cc(Nc4nccc(C(F)(F)F)n4)ccc3n1)CC2 (racemic) [Example 92, rac-N^2-(7-Methoxy-indan-1-yl)-N^6-(4-trifluoromethyl-pyrimidin-2-yl)-quinoline-2,6-diamine]
3.4	150	COc1cccc2c1C(Nc1ccc3cc(Nc4nc(C)cc(C)n4)ccc3n1)CC2 (racemic) [Example 93, rac-N^6-(4,6-Dimethyl-pyrimidin-2-yl)-N^2-(7-methoxy-indan-1-yl)-quinoline-2,6-diamine]
3.5	109	COc1cccc2c1C(Nc1ccc3cc(Nc4cc(C)on4)ccc3n1)CC2 (racemic) [Example 95, rac-N^2-(7-Methoxy-indan-1-yl)-N^6-(5-methyl-isoxazol-3-yl)-quinoline-2,6-diamine]
	213	Cc1cc(C)nc(Nc2ccc3nc(NC4COc5ccccc54)ccc3c2)n1 (racemic) [Example 97, rac-N^2-(2,3-Dihydro-benzofuran-3-yl)-N^6-(4,6-dimethyl-pyrimidin-2-yl)-quinoline-2,6-diamine]
	128	FC(F)(F)c1ccnc(Nc2ccc3nc(NC4COc5ccccc54)ccc3c2)n1 (racemic) [Example 98, rac-N^2-(2,3-Dihydro-benzofuran-3-yl)-N^6-(4-trifluoromethyl-pyrimidin-2-yl)-quinoline-2,6-diamine]
	195	Cc1cc(Nc2ccc3nc(NC4COc5ccccc54)ccc3c2)no1 (racemic) [Example 101, rac-N^2-(2,3-Dihydro-benzofuran-3-yl)-N^6-(5-methyl-isoxazol-3-yl)-quinoline-2,6-diamine]
13.7	112	Fc1ccc2c(c1)CCC2Nc1ccc2cc(Nc3nccc(C(F)(F)F)n3)ccc2n1 (racemic) [Example 103, rac-N^2-(5-Fluoro-indan-1-yl)-N^6-(4-trifluoromethyl-pyrimidin-2-yl)-quinoline-2,6-diamine]
7.3	166	Cc1cc(Nc2ccc3nc(NC4CCc5cc(F)ccc54)ccc3c2)no1 (racemic) [Example 106, rac-N^2-(5-Fluoro-indan-1-yl)-N^6-(5-methyl-isoxazol-3-yl)-quinoline-2,6-diamine]
26.1	132	COc1cccc2c1C(Nc1ccc3cc(Nc4cccc(C(F)(F)F)n4)ccc3n1)CO2 (racemic) [Example 109, rac-N^2-(4-Methoxy-2,3-dihydro-benzofuran-3-yl)-N^6-(6-trifluoromethyl-pyridin-2-yl)-quinoline-2,6-diamine]
11.8	185	COc1cccc2c1C(Nc1ccc3cc(Nc4nccc(C(F)(F)F)n4)ccc3n1)CO2 (racemic) [Example 110, rac-N^2-(4-Methoxy-2,3-dihydro-benzofuran-3-yl)-N^6-(4-trifluoromethyl-pyrimidin-2-yl)-quinoline-2,6-diamine]
9.1	145	COc1cccc2c1C(Nc1ccc3cc(Nc4nc(C)cc(C)n4)ccc3n1)CO2 (racemic) [Example 111, rac-N^6-(4,6-Dimethyl-pyrimidin-2-yl)-N^2-(4-methoxy-2,3-dihydro-benzofuran-3-yl)-quinoline-2,6-diamine]
14.4	222	COc1cccc2c1C(Nc1ccc3cc(Nc4cc(C)on4)ccc3n1)CO2 (racemic) [Example 113, rac-N^2-(4-Methoxy-2,3-dihydro-benzofuran-3-yl)-N^6-(5-methyl-isoxazol-3-yl)-quinoline-2,6-diamine]
	175	O=C(NCc1ccc(F)cc1)c1ccc2nc(N[C@@H]3CCc4ccccc43)ccc2c1 [Example 52, 2-((R)-Indan-1-ylamino)-quinoline-6-carboxylic acid 4-fluoro-benzylamide]
281	168	COc1ccccc1CNC(=O)c1ccc2nc(N[C@@H]3CCc4ccccc43)ccc2c1 [Example 55, 2-((R)-Indan-1-ylamino)-quinoline-6-carboxylic acid 2-methoxy-benzylamide]
141	225.5	ON=C(c1ccc(F)cc1)c1ccc2nc(N[C@@H]3CCc4ccccc43)ccc2c1 [Example 56, (4-Fluoro-phenyl)-[2-((R)-indan-1-ylamino)-quinolin-6-yl]-methanone oxime]
23.2	142	c1cnc(Nc2ccc3nc(N[C@@H]4CCc5ccccc54)ccc3c2)nc1 [Example 66, N^2—(R)-Indan-1-yl-N6-pyrimidin-2-yl-quinoline-2,6-diamine]
15.7	88	Cc1cc(C)nc(Nc2ccc3nc(N[C@@H]4CCc5ccccc54)ccc3c2)n1 [Example 67, N^6-(4,6-Dimethyl-pyrimidin-2-yl)-N^2—(R)-indan-1-yl-quinoline-2,6-diamine]
20	103	Cc1ccnc(Nc2ccc3nc(N[C@@H]4CCc5ccccc54)ccc3c2)n1 [Example 68, N^2—(R)-Indan-1-yl-N^6-(4-methyl-pyrimidin-2-yl)-quinoline-2,6-diamine]
20.4	77	c1ccc(Nc2ccc3nc(N[C@@H]4CCc5ccccc54)ccc3c2)nc1 [Example 69, N^2—(R)-Indan-1-yl-N^6-pyridin-2-yl-quinoline-2,6-diamine]
7.7	72	Cc1cccc(Nc2ccc3nc(N[C@@H]4CCc5ccccc54)ccc3c2)n1 [Example 72, N^2—(R)-Indan-1-yl-N^6-(6-methyl-pyridin-2-yl)-quinoline-2,6-diamine]
11	165	FC(F)(F)c1ccnc(Nc2ccc3nc(N[C@@H]4CCc5ccccc54)ccc3c2)n1 [Example 73, N^2—(R)-Indan-1-yl-N^6-(4-trifluoromethyl-pyrimidin-2-yl)-quinoline-2,6-diamine]
8.7	127	Cc1cc(Nc2ccc3nc(N[C@@H]4CCc5ccccc54)ccc3c2)no1 [Example 74, N^2—(R)-Indan-1-yl-N^6-(5-methyl-isoxazol-3-yl)-quinoline-2,6-diamine]
25.9	146	CC(C)(C)n1nnc(Nc2ccc3nc(N[C@@H]4CCc5ccccc54)ccc3c2)n1 [Example 75, N^6-(2-tert-Butyl-2H-tetrazol-5-yl)-N^2—(R)-indan-1-yl-quinoline-2,6-diamine]
24.8	226	c1ccc2c(c1)CC[C@H]2Nc1ccc2cc(Nc3nnc(C4CC4)o3)ccc2n1 [Example 76, N^6-(5-Cyclopropyl-[1,3,4]oxadiazol-2-yl)-N^2—(R)-indan-1-yl-quinoline-2,6-diamine]
21.2	129	Cc1nnc(Nc2ccc3nc(N[C@@H]4CCc5ccccc54)ccc3c2)o1 [Example 77, N^2—(R)-Indan-1-yl-N^6-(5-methyl-[1,3,4]oxadiazol-2-yl)-quinoline-2,6-diamine]
9.6	109	OCCc1cccc(Nc2ccc3nc(N[C@@H]4CCc5ccccc54)ccc3c2)c1 [Example 83, 2-{3-[2-((R)-Indan-1-ylamino)-quinolin-6-ylamino]-phenyl}-ethanol]
225		CN(c1ccc2nc(N[C@@H]3CCc4ccccc43)ccc2c1)c1ccccn1 [Example 85, N^2—(R)-Indan-1-yl-N^6-methyl-N^6-pyridin-2-yl-quinoline-2,6-diamine]
